# Reference: US20230233671A1, “RNA MOLECULES” (Pfizer Inc., priority 2021, published 2023)
# Legend:
# VZV gE = test: Serum VZV gE-binding IgG levels (LUMINEX) in immunized Balb/c mice; assay type: in vivo; conditions: for Day 28 (GMC), serum gE-binding IgG: 0.5 μg IM Day 0, Day 28 (prime only); for Day 34 (GMC), serum gE-binding IgG: 0.5 μg IM Days 0 and 28, Day 34 (six days after boost); for Day 42 (GMC), serum gE-binding IgG: 0.5 μg IM Days 0 and 28, Day 42 (two weeks after booster)
# Description: VZV RNA-LNP vaccines were tested for their ability to induce IgG and T cell responses in Balb/c mice. 15 mice per group were immunized in accordance with the schedule and specifications in Table 9. Briefly, 15 mice per group were immunized intramuscularly (IM) on Day 0 and boosted IM on Day 28. Mice immunized with SHINGRIX® received 1, 2.5, or 5 μg, corresponding to 1/50, 1/20, and 1/10 of the human clinical dose (50 μg), respectively; mice immunized with gE_WT CO1 received 0.5 or 1 μg; mice immunized with ms3 CO1 received 0.5 μg; mice immunized with ms4 CO1 received 0.5 μg; mice immunized with gE_WT CO2 received 0.5 μg; mice immunized with lyophilized gE_WT CO1 received 0.5 or 1 μg. Saline was administered on Days 0 and 28 to a negative control group. Serum was collected from mice on Days 28 and 42 for characterization of VZV gE-binding IgG levels (LUMINEX® analyses). Spleens were harvested, and sera collected, from five mice in each group on Day 35 for cellular analyses.
# Serum IgG levels were determined for each mouse sample using the LUMINEX® platform. Briefly, diluted sera were incubated in the dark in the presence of blocked, recombinant gE protein-bound single-plex microspheres (MAGPLEX® Microspheres, region 79) for 20±4 hours at 2-8° C., 300 rpm. A secondary antibody solution (R-phycoerythrin Conjugated AffiniPure F(ab)′2 Fragment Goat Anti-Mouse IgG F(ab)′2 Fragment Specific) was prepared at 1:250 in LXA-16 buffer. Plates were washed three times in LXA-20 (EIA-7), and secondary antibody was applied to each well of the assay plate. Plates were covered with aluminum sealers and incubated for 2 hours±15 minutes at 25° C., 300 rpm. Plates were washed three times with LXA-20 (EIA-7) buffer, and 100 ul LXA-20 was applied to each well. Plates were covered with aluminum sealers and incubated at 25° C., 300 rpm for a minimum of 4 minutes, or up to 2 hours. Plates were analyzed on a BIO-PLEX® Reader. IgG titers for Day, 28, 34 and 42 are show in Table 10 and FIGS. 17-19.
# Vero cells = test: VZV gE expression and subcellular localization in Vero cells transfected with VZV RNA constructs (imaging); assay type: cell-based, African green monkeys; conditions: for VZV RNA (Vero cells) MFI: Table 7, VZV gE RNA, see Example 2
# Description: Expression of VZV RNA constructs were tested in transfected Vero cells, a kidney epithelial cell culture line derived from African green monkeys. Seeded Vero cells were transfected for 24 hours at 37° C., 5% CO2 with 10 ng, 25 ng, or 50 ng of RNA constructs (Table 5) using MESSENGERMAX™ in accordance with the manufacturer's instructions. Cells were washed three times with PBS+Ca/Mg, and fixed in 4% paraformaldehyde (PFA) for 20 minutes at 25° C. Cells were washed twice with 3% bovine serum albumin (BSA) in PBS+Ca/Mg. Primary and secondary staining antibodies were diluted in 0.1% saponin in goat serum. Cells were stained with a 1:1000 dilution of primary antibody for 1 hour at 37° C., washed three times with PBS+Ca/Mg, and incubated with secondary antibody (1:500) and CELLMASK™ (1:140,000) for 45 minutes at 37° C. Cells were then stained with Dapi (1:15,000-1:20,000) for 15 minutes at 25° C., and washed three times with PBS+Ca/Mg. Cells were analyzed for VZV gE expression and subcellular localization using an Opera PHENIX® Plus High-Content Screening System at 10× or 63× magnification.
# [1] = tested on: human embryonic kidney (HEK) 293T cells; test: In vitro expression (IVE) of VZV RNA-LNP vaccines in HEK 293T cells (FACS); assay type: cell-based; conditions: for VZV RNA-LNPs (293T cells) MFI: Table 7; for VZV RNA-LNPs (293T cells) EC50 (ng/well): Table 7, FIG. 14, input RNA vs percentage of gE-expressing cells, 24 hours
# Description: In vitro expression (IVE) analyses were conducted to assess the potency of VZV RNA-LNP vaccines. RNA constructs were formulated into LNPs as previously described in Example 3, and a range of input VZV RNA-LNP quantities was transfected into human embryonic kidney (HEK) 293T cells for 24 hours at 37° C., 5% CO2. Transfected cells were washed with DPBS, detached from plate wells using ACCUTASE®, and rinsed with cold PBS. Cells were subjected to live/dead staining, fixation, and permeabilization prior to FACS staining. Fixed and permeabilized cells were incubated with an anti-gE primary antibody (1:1000) for 45 minutes at 2-8° C., washed twice with BD PERM/WASH™ buffer and incubated with a goat anti-human kappa-PE secondary antibody (1:1000) for 30 minutes at 2-8° C. Cells were washed twice with BD PERM/WASH™ buffer, resuspended in 1×FACS buffer, and analyzed on a BD LSRII to determine the proportion of cells expressing VZV gE for each VZV RNA-LNP input. A titration curve was created whereby input RNA quantities were plotted against the percentage of gE-expressing cells to determine the EC50 of each VZV RNA-LNP vaccine.
Substance,"Day 28 (GMC), serum gE-binding IgG (VZV gE)","Day 34 (GMC), serum gE-binding IgG (VZV gE)","Day 42 (GMC), serum gE-binding IgG (VZV gE)",VZV RNA (Vero cells) MFI (Vero cells),VZV RNA-LNPs (293T cells) MFI [1],VZV RNA-LNPs (293T cells) EC50 (ng/well) [1] [ng/well],"subcellular localization of VZV gE (Vero cells; Vero cells, 50 ng at 63× and 25 ng at 10× magnification)"
"ms3 CO1: modRNA construct, ORF SEQ ID NO: 149, VZV gE with deletion of aa 547-623, secreted",3.98,29.5,370.11,497,663,231,–
ms8: RNA constructs encoding VZV gE with deletion of the acidic domain aa 588-602 (SEQ ID NO: 6),–,–,–,–,–,–,preferentially within cellular membranes
"ms4 CO1: modRNA construct, ORF SEQ ID NO: 151, full length VZV gE with substitution Y582A",3.55,112.7,598.57,981,1713,15,–
